In patent US12570994B2, “Plants having increased tolerance to herbicides” (BASF AGRO B.V., priority 2010, dated 2026):

Legend:
[1] = biological target: amino acid substituted PPO enzyme R128A (Amaranthus tuberculatus, UniProt Q0NZW9, R128A); experiment: biochemical
[2] = biological target: amino acid substituted PPO enzyme R128L (Amaranthus tuberculatus, UniProt Q0NZW9, R128L); experiment: biochemical
[3] = biological target: amino acid substituted PPO enzyme dG210 (Amaranthus tuberculatus, UniProt Q0NZW9, DEL211-211, form not given); format: biochemical
[4] = biological target: amino acid substituted PPO enzyme L397D (Amaranthus tuberculatus, UniProt Q0NZW9, L397D); experiment: biochemical
[5] = biological target: amino acid substituted PPO enzyme L397N (Amaranthus tuberculatus, UniProt Q0NZW9, L397N); experiment: biochemical
[6] = biological target: amino acid substituted PPO enzyme F420M (Amaranthus tuberculatus, UniProt Q0NZW9, F420M); experiment: biochemical
[7] = biological target: amino acid substituted PPO enzyme F420I (Amaranthus tuberculatus, UniProt Q0NZW9, F420I); experiment: biochemical
[8] = biological target: amino acid substituted PPO enzyme F420L (Amaranthus tuberculatus, UniProt Q0NZW9, F420L); experiment: biochemical
[9] = biological target: amino acid substituted PPO enzyme F420V (Amaranthus tuberculatus, UniProt Q0NZW9, F420V); experiment: biochemical
[10] = biological target: amino acid substituted PPO enzyme R128A, F420M (Amaranthus tuberculatus, UniProt Q0NZW9, F420M/R128A); experiment: biochemical
[11] = biological target: amino acid substituted PPO enzyme R128A, F420I (Amaranthus tuberculatus, UniProt Q0NZW9, F420I/R128A); experiment: biochemical
[12] = biological target: amino acid substituted PPO enzyme R128A, F420L (Amaranthus tuberculatus, UniProt Q0NZW9, F420L/R128A); experiment: biochemical

Q: What does the source list for C#CCN1C(=O)C(F)(F)Oc2cc(F)c(-n3c(=O)n(C)c(=S)n(C)c3=O)cc21 [benzoxazinone 1.a.35]?
A: IC50 [1]: 0.14 nM; IC50 [2]: 0.773 nM; IC50 [3]: 2.12 nM; IC50 [4]: 0.272 nM; IC50 [5]: 0.235 nM; IC50 [6]: 0.275 nM; IC50 [7]: 0.495 nM; IC50 [8]: 0.993 nM; IC50 [9]: 2.45 nM; IC50 [10]: 6.24 nM; IC50 [11]: 19.8 nM; IC50 [12]: 23.8 nM
